Results taken from patent US10047096B2, “Substituted pyridobenzodiazepinone-derivatives and use thereof” (Bayer Pharma Aktiengesellschaft, priority 2014, dated 2018).

Legend:
human PDGFRβ = human PDGFRβ (Homo sapiens (Human), UniProt P09619); test: PDGFRβ kinase assay (PDGFRβ-HTRF); assay type: biochemical; details: 10 μM ATP; some mean values from multiple determinations
In short: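 GST-fused human PDGFRβ fragment (R561-L1106) from Sf9 cells was preincubated 15 min with compound in 50 mM HEPES pH 7.5, 10 mM MgCl2, 2.5 mM DTT, 0.01% Triton X-100; substrate was biotinylated poly-Glu,Tyr (4:1).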

[1] = molecular target: pPDGFRβ in normal human dermal fibroblasts (NHDF) (Homo sapiens (Human), UniProt P09619); test: Cellular pPDGFRβ inhibition assay; assay type: cell-based; details: NHDF stimulated with 50 ng/ml PDGF-BB, 1 h
Method: Thereafter, 50 ng/ml recombinant human PDGF-BB (R&D Systems, Cat. No. 220-BB-050) and a dilution series of the test substances to be examined in DMSO were added to the cells. The total volume per well was 100 μl. After incubation under the abovementioned conditions for one hour, the Opti-MEM® I Reduced Serum Medium was tapped out and discarded. Subsequently, the lysis buffer [Phospho PDGFRβ (Tyr751) Assay Whole Cell Lysate Kit, MSD, Cat. No. K150DVD-2] was made up according to the manufacturer's instructions and 70 μl of this mixture per well were added. The lysed cell samples were either stored at −20° C. or analysed immediately after the lysis in a Meso Scale SECTOR® Imager 2400 according to the abovementioned manufacturer's instructions. The measurement data were presented as percentage PDGFRβ stimulation compared to PDGF-BB-stimulated but substance-untreated cells. The IC50 values were calculated by employing the nonlinear regression (curve fit) function of GraphPad Prism 6 (La Jolla, Calif., USA).

Sequence of pPDGFRβ in normal human dermal fibroblasts (NHDF) (P09619 33-1106): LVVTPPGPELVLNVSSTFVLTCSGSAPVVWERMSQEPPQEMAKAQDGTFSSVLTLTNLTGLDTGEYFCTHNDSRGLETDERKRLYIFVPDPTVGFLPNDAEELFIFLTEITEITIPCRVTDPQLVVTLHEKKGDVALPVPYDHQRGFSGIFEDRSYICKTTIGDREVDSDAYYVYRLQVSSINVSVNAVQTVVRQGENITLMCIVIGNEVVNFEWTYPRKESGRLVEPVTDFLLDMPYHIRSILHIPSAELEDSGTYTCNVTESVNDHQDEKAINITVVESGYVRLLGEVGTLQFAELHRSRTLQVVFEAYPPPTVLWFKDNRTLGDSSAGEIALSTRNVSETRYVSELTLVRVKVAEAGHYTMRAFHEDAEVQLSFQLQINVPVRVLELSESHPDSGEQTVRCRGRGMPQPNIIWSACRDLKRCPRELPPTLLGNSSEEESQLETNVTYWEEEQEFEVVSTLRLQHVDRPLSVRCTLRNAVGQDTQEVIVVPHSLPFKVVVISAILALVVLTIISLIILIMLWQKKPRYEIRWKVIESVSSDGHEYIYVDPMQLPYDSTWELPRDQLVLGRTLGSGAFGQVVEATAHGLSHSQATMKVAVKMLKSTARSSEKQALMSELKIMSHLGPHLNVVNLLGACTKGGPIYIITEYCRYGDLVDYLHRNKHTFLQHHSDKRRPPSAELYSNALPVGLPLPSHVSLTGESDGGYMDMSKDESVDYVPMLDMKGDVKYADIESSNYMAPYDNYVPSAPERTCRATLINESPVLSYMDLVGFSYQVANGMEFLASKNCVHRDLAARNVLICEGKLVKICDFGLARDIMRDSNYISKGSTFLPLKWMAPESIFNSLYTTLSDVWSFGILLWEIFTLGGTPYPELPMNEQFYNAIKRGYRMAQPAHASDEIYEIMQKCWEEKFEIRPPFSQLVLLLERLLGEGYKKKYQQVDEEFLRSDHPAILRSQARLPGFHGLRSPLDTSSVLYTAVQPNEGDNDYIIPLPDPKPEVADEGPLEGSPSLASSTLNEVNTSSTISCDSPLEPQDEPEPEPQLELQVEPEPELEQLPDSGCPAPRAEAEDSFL
Sequence of human PDGFRβ (P09619 561-1106): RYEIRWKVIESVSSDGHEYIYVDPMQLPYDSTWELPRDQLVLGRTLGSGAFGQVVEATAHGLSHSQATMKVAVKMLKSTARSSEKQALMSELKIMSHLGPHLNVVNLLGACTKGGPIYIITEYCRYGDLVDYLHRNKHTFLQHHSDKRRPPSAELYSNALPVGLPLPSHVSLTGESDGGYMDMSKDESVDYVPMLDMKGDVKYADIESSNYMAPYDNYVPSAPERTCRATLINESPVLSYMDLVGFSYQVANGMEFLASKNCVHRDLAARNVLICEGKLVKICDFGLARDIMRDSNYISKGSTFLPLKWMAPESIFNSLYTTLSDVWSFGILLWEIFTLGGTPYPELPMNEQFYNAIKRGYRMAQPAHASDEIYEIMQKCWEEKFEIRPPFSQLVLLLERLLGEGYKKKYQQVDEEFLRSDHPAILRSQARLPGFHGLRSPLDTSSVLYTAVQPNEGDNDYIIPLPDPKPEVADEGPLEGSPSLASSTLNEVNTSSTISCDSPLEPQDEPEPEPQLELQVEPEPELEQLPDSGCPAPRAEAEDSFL

Row | SMILES | IC50 (human PDGFRβ) [µM] | IC50 [1] [µM]
1 | Cc1cc(F)c(Nc2ccnc3c2C(=O)Nc2cc(CN[C@H]4CC[C@H](O)CC4)ccc2N3)cc1O [Example 76, 4-[(2-Fluoro-5-hydroxy-4-methylphenyl)amino]-8-{[(trans-4-hydroxycyclohexyl)amino]methyl}-6,11-dihydro-5H-pyrido[2,3-b][1,5]benzodiazepin-5-one] | 0.00158 | 0.0113
2 | CCN(C)Cc1ccc2c(c1)NC(=O)c1c(Nc3cc(O)c(C)cc3F)ccnc1N2 [Example 49, 8-{[Ethyl(methyl)amino]methyl}-4-[(2-fluoro-5-hydroxy-4-methylphenyl)amino]-6,11-dihydro-5H-pyrido[2,3-b][1,5]benzodiazepin-5-one] | 0.000487 | 0.0411
3 | CCN(CC)Cc1ccc2c(c1)NC(=O)c1c(Nc3cc(O)c(Cl)cc3F)ccnc1N2 [Example 174, 4-[(4-Chloro-2-fluoro-5-hydroxyphenyl)amino]-8-[(diethylamino)methyl]-6,11-dihydro-5H-pyrido[2,3-b][1,5]benzodiazepin-5-one] | 0.00125 | 0.106
4 | Cc1cc(F)c(Nc2ccnc3c2C(=O)Nc2cc(CNC(CO)CO)ccc2N3)cc1O [Example 78, 8-{[(1,3-Dihydroxypropan-2-yl)amino]methyl}-4-[(2-fluoro-5-hydroxy-4-methylphenyl)amino]-6,11-dihydro-5H-pyrido[2,3-b][1,5]benzodiazepin-5-one] | 0.000974 | 0.0326
5 | CCN(Cc1ccc2c(c1)NC(=O)c1c(Nc3cc(O)c(C)cc3F)ccnc1N2)C(C)C [Example 51, 8-{[Ethyl(isopropyl)amino]methyl}-4-[(2-fluoro-5-hydroxy-4-methylphenyl)amino]-6,11-dihydro-5H-pyrido[2,3-b][1,5]benzodiazepin-5-one] | 0.00115 | 0.0221
6 | Cc1cc(F)c(Nc2ccnc3c2C(=O)Nc2cc(CN4CCOCC4)ccc2N3)cc1O [Example 29, 4-[(2-Fluoro-5-hydroxy-4-methylphenyl)amino]-8-(morpholin-4-ylmethyl)-6,11-dihydro-5H-pyrido[2,3-b][1,5]benzodiazepin-5-one] | 0.00289 | 0.0353
7 | Cc1cc(F)c(Nc2ccnc3c2C(=O)Nc2cc(CNC4CC4)ccc2N3)cc1O [Example 30, 8-[(Cyclopropylamino)methyl]-4-[(2-fluoro-5-hydroxy-4-methylphenyl)amino]-6,11-dihydro-5H-pyrido[2,3-b][1,5]benzodiazepin-5-one] | 0.00217 | 0.111
8 | CCN(CCO)C(=O)c1ccc2c(c1)NC(=O)c1c(Nc3cc(O)c(C)cc3F)ccnc1N2 [Example 162, N-Ethyl-4-[(2-fluoro-5-hydroxy-4-methylphenyl)amino]-N-(2-hydroxyethyl)-5-oxo-6,11-dihydro-5H-pyrido[2,3-b][1,5]benzodiazepine-8-carboxamide] | 0.0121 | 0.89
9 | Cc1cc(F)c(Nc2ccnc3c2C(=O)Nc2cc(CN(C)CCN)ccc2N3)cc1O [Example 209, 8-{[(2-Aminoethyl)(methyl)amino]methyl}-4-[(2-fluoro-5-hydroxy-4-methylphenyl)amino]-6,11-dihydro-5H-pyrido[2,3-b][1,5]benzodiazepin-5-one] | 0.000739 | 0.215
10 | Cc1cc(F)c(Nc2ccnc3c2C(=O)Nc2cc(CN4C[C@H](O)C[C@H]4CO)ccc2N3)cc1O [Example 64, 4-[(2-Fluoro-5-hydroxy-4-methylphenyl)amino]-8-{[(2S,4R)-4-hydroxy-2-(hydroxymethyl)pyrrolidin-1-yl]methyl}-6,11-dihydro-5H-pyrido[2,3-b][1,5]benzodiazepin-5-one] | 0.00068 | 0.0143
11 | Cc1cc(F)c(Nc2ccnc3c2C(=O)Nc2cc(CN4CCN(CC(F)F)CC4)ccc2N3)cc1O [Example 227, 8-{[4-(2,2-Difluoroethyl)piperazin-1-yl]methyl}-4-[(2-fluoro-5-hydroxy-4-methylphenyl)amino]-6,11-dihydro-5H-pyrido[2,3-b][1,5]benzodiazepin-5-one] | 0.00638 | 0.554
12 | CCOCCN(CC)Cc1ccc2c(c1)NC(=O)c1c(Nc3cc(O)c(C)cc3F)ccnc1N2 [Example 50, 8-{[(2-Ethoxyethyl) (ethyl)amino]methyl}-4-[(2-fluoro-5-hydroxy-4-methylphenyl)amino]-6,11-dihydro-5H-pyrido[2,3-b][1,5]benzodiazepin-5-one] | 0.00113 | 0.0974
13 | CCNCc1ccc2c(c1)NC(=O)c1c(Nc3cc(O)c(C)cc3F)ccnc1N2 [Example 31, 8-[(Ethylamino)methyl]-4-[(2-fluoro-5-hydroxy-4-methylphenyl)amino]-6,11-dihydro-5H-pyrido[2,3-b][1,5]benzodiazepin-5-one] | 0.00122 | 0.0333
14 | Cc1cc(F)c(Nc2ccnc3c2C(=O)Nc2cc(CNC(CO)C(C)C)ccc2N3)cc1O (racemic) [Example 75, rac-4-[(2-Fluoro-5-hydroxy-4-methylphenyl)amino]-8-{[(1-hydroxy-3-methylbutan-2-yl)amino]methyl}-6,11-dihydro-5H-pyrido[2,3-b][1,5]benzodiazepin-5-one] | 0.000826 | 0.0439
15 | CCN(CCOC)Cc1ccc2c(c1)NC(=O)c1c(Nc3cc(O)c(C)cc3F)ccnc1N2 [Example 55, 8-{[Ethyl(2-methoxyethyl)amino]methyl}-4-[(2-fluoro-5-hydroxy-4-methylphenyl)amino]-6,11-dihydro-5H-pyrido[2,3-b][1,5]benzodiazepin-5-one] | 0.000905 | 0.0607
16 | Cc1cc(F)c(Nc2ccnc3c2C(=O)Nc2cc(CN(C)CCO)ccc2N3)cc1O [Example 198, 4-[(2-Fluoro-5-hydroxy-4-methylphenyl)amino]-8-{[(2-hydroxyethyl)(methyl)amino]methyl}-6,11-dihydro-5H-pyrido[2,3-b][1,5]benzodiazepin-5-one] | 0.000962 | 0.0498
17 | CCN(CC)Cc1ccc2c(c1)NC(=O)c1c(Nc3cc(O)c(C)cc3F)ccnc1N2 [Example 28, 8-[(Diethylamino)methyl]-4-[(2-fluoro-5-hydroxy-4-methylphenyl)amino]-6,11-dihydro-5H-pyrido[2,3-b][1,5]benzodiazepin-5-one] | 0.000953 | 0.0216
18 | Cc1ccc(O)cc1Nc1ccnc2c1C(=O)Nc1cc(CNC(C)C)ccc1N2 [Example 19, 4-[(5-Hydroxy-2-methylphenyl)amino]-8-[(isopropylamino)methyl]-6,11-dihydro-5H-pyrido[2,3-b][1,5]benzodiazepin-5-one] | 0.00202 | 0.0409
19 | Cc1ccc(O)cc1Nc1ccnc2c1C(=O)Nc1cc(CN3CCC(O)CC3)ccc1N2 [Example 42, 4-[(5-Hydroxy-2-methylphenyl)amino]-8-[(4-hydroxypiperidin-1-yl)methyl]-6,11-dihydro-5H-pyrido[2,3-b][1,5]benzodiazepin-5-one] | 0.00244 | 0.14
20 | Cc1cc(F)c(Nc2ccnc3c2C(=O)Nc2cc(CNC4CC(O)C4)ccc2N3)cc1O (stereo not shown) [Example 187, 4-[(2-Fluoro-5-hydroxy-4-methylphenyl)amino]-8-{[(3-hydroxycyclobutyl)amino]methyl}-6,11-dihydro-5H-pyrido[2,3-b][1,5]benzodiazepin-5-one] | 0.00151 | 0.0413
21 | Cc1cc(F)c(Nc2ccnc3c2C(=O)Nc2cc(CN4CCCC4)ccc2N3)cc1O [Example 32, 4-[(2-Fluoro-5-hydroxy-4-methylphenyl)amino]-8-(pyrrolidin-1-ylmethyl)-6,11-dihydro-5H-pyrido[2,3-b][1,5]benzodiazepin-5-one] | 0.00325 | 0.0228
22 | Cc1cc(F)c(Nc2ccnc3c2C(=O)Nc2cc(CN(C)C[C@H](C)O)ccc2N3)cc1O [Example 202, 4-[(2-Fluoro-5-hydroxy-4-methylphenyl)amino]-8-({[(2S)-2-hydroxypropyl](methyl)amino}methyl)-6,11-dihydro-5H-pyrido[2,3-b][1,5]benzodiazepin-5-one] | 0.00155 | 0.0391
23 | Cc1cc(F)c(Nc2ccnc3c2C(=O)Nc2cc(CN4CCC(O)C(C)(C)C4)ccc2N3)cc1O (racemic) [Example 166, rac-4-[(2-Fluoro-5-hydroxy-4-methylphenyl)amino]-8-[(4-hydroxy-3,3-dimethylpiperidin-1-yl)methyl]-6,11-dihydro-5H-pyrido[2,3-b][1,5]benzodiazepin-5-one] | 0.00502 | –
24 | Cc1cc(F)c(Nc2ccnc3c2C(=O)Nc2cc(C(=O)N4CCC(CCO)CC4)ccc2N3)cc1O [Example 161, 4-[(2-Fluoro-5-hydroxy-4-methylphenyl)amino]-8-{[4-(2-hydroxyethyl)piperidin-1-yl]carbonyl}-6,11-dihydro-5H-pyrido[2,3-b][1,5]benzodiazepin-5-one] | 0.0107 | –
